# Measured values published in patent US11634451B2, “Method for the site-specific enzymatic labelling of nucleic acids in vitro by incorporation of unnatural nucleotides” (The Scripps Research Institute, priority 2013, dated 2023).
# What was measured:
# [1] = target: T7 RNA polymerase (Escherichia phage T7, UniProt P00573); settings: ribonucleotide triphosphates, FIG. 7
# [2] = PCR incorporation of d5SICS α-thiotriphosphate opposite dNaM; type: biochemical; settings: standard PCR
# Method: The amplification efficiency and fidelity of incorporation of d(5SICS-αS)TP is greater than 99% and virtually identical to results obtained with d5SICS. To functionalize this unnatural base pair, we reacted the site-specifically incorporated phosphorothioate bond with iodoacetyl-PEG2-biotin to label the DNA duplex with the biotin functionality.^8 To characterize this site-specific adduct, we incubated it in the presence of streptavidin and then quantified the functionalization by gel shift assay. We were able to convert 60-70% of the phosphorothioate bond to the functionalized derivative, which is a standard efficiency (70%) for labeling protocols previously reported in literature (See Fidanza, J. A.; Ozaki, H.; McLaughlin, L. W., Site-specific labeling of DNA sequences containing phosphorothioate diesters. J. Am. Chem. Soc. […], 114 (14), 5509-5517.). These conjugated derivatives show high stability under conditions typical for heat denaturation of DNA duplexes, i.e. at 50° C. overnight within the range of pH 6.0-8.3 (<10% decomposition), as well as for at 95° C. for 3 minutes at pH 8.3 (<5% decomposition). We envision that the phosphorothioate strategy can be equally well employed with other unnatural base pairs, including d5SICS-dMMO2 and d5SICS-dNaM.
# T7 RNA polymerase, sequence (P00573 whole entry): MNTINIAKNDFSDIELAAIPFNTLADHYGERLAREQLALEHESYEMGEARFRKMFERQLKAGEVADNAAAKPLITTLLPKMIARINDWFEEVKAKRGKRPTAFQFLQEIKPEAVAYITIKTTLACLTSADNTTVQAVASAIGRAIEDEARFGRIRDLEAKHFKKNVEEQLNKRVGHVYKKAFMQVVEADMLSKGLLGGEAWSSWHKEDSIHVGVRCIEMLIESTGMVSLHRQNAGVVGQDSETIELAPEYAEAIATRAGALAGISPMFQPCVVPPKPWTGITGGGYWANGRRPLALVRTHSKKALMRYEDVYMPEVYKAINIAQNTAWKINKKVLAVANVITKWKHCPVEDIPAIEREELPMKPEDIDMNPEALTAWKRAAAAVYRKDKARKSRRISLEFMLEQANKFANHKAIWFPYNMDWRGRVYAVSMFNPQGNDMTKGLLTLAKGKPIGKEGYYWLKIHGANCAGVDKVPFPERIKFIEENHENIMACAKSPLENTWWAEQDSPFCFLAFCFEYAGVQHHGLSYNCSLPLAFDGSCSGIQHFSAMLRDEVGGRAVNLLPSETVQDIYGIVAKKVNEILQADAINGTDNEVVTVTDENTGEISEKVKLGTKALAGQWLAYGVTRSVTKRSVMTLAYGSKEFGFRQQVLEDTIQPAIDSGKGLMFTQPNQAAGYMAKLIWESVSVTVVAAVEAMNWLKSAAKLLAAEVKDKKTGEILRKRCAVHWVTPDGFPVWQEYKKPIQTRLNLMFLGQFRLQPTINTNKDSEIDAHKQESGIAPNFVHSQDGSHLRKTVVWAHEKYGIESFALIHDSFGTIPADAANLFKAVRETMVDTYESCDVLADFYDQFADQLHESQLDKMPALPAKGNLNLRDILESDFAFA
SMILES,transcription into RNA [1],amplification efficiency and fidelity of incorporation [2]
COc1cc(C)c(C#CCNC(=O)C(Cl)Cl)cc1[C@@H]1O[C@H](COP(=O)(O)OP(=O)(O)OP(=O)(O)O)[C@@H](O)[C@H]1O [MMO2^PA],high efficiency and fidelity,–
Cc1ccc2c(=S)n([C@H]3C[C@H](O)[C@@H](COP(O)(=S)OP(=O)(O)OP(=O)(O)O)O3)ccc2c1 (some centres unmarked) [d(5SICS-αS)TP],–,greater than 99%
